The experiment has as its system KUSA/A1 cells. The experiment is described as follows: Insulin concentration (ELISA) in supernatant of KUSA/A1 cells cultured 12 days with or without bFGF. The format is cell-based, mouse. The note with it: 2 h after 25.0 mM glucose. As for the experimental part: The KUSA/A1 cells obtained in Example 1 were treated with trypsin and transferred to a 6-well dish (product of Falcon) so that the cell density might become as low as possible.
The cells were cultured in serum-free DMEM containing insulin, transferrin, progesterone, putrescine and selenium or in DMEM containing 10% FBS at 33° C. for 12 days using an incubator with a CO2 concentration of 5%.
bFGF (recombinant human basic fibroblast growth factor; product of R&D) was added to each of the serum-free or serum-containing wells to a final concentration of 10 ng/ml. Hereafter, unless otherwise specified, cell culture was carried out under the same conditions while medium exchange was conducted at 2-day intervals.
After 12 days of cultivation, the medium in each well was discarded, the cells in each well were washed repeatedly with three portions of PBS. After washing, 2 ml of PBS was added to each well afresh, and cultivation was performed at 33° C. for 2 hours using an incubator with a CO2 concentration of 5%.
After 2 hours of cultivation, the PBS was discarded, 2 ml of DMEM containing 25.0 mM glucose was added afresh, and cultivation was performed at 33° C. for further 2 hours using an incubator with a CO2 concentration of 5%. […]

“bFGF: recombinant human basic fibroblast growth factor; product of R&D; used as pancreatic β cell forming agent”: the “insulin detected in the supernatant” value (DMEM containing bFGF (10 ng/ml) and 10% FBS, below assay sensitivity limit) is listed as “below 39 pg/mL”; the “insulin detected in the supernatant” value (serum-free DMEM containing bFGF (10 ng/ml), insulin, transferrin, progesterone, putrescine and selenium) was found to be 223 pg/mL.

Values taken from US20050208029A1, “Method of forming pancreatic beta cells from mesenchymal cells” (priority 2002, published 2005).
